From patent publication US20080280765A1, “Method of Promoting Enlargement Growth of Agricultural and Horticultural Crops” (priority 2006, published 2008) come the findings set out here.

Where a name gives a salt, the structure may show the parent alone.

In the assay the test system is grape (species: "Italia"). Nature of the assay: Fruit enlargement test, grape, dipping treatment of bunches. It counts as in vivo. To be noted: for Mean bunch weight: 7 bunches; for One berry weight: bunch weight/total berry number. On the procedure: Using grape (species: “Italia”) as a subject, a fruit enlargement test was done following the experimental summary described below. The test was carried out with 7 replication. Fifteen days after the full bloom, grape bunches were dipped in a chemical solution diluted to a predetermined concentration. The treated grape bunches were dried in air and grown as they were, until the bunches were harvested 43 days after the treatment to examine the bunch weight and the total number of grape berries. Five berries were randomly selected from each grape bunch of 5 replication among the test lots, for measuring the sugar level with a hand-held refracto-sugar meter manufactured by ATAGO CO., LTD (Type number: Nl). Additionally, a drug substance of gibberellin in powder (98% purity) was used as the gibberellin, while as the prohexadione calcium salt, a 27.5% formulation (the trade name: Viviful) was used, and as the trinexapac ethyl, a 25% formulation thereof (the trade name: Moddus) was used.
Material: Grape bunch “Italia” Fully bloomed on Sep. 21, 2006; starting the treatments on Oct. 6, 2006; harvested on Dec. 18, 2006: 7 bunches per one treatment lot.
C: Cont (control lot) G: dipping treatment in gibberellin (24.5 ppm) PCA: dipping treatment in prohexadione calcium salt (20 ppm, 100 ppm) GPCA: dipping treatment in gibberellin and prohexadione calcium salt (24.5 and 20 ppm, respectively or 24.5 ppm and 100 ppm, respectively) TR: dipping treatment in trinexapac ethyl (20 ppm, 100 ppm) G+TR: dipping treatment in gibberellin and trinexapac ethyl (24.5 ppm and 20 ppm, respectively or 24.5 ppm and 100 ppm, respectively).
Herein, statistical analysis was done by the Tukey's HSD test (p=0.05). Significant difference is observed between different alphabets.

For `CCC(=O)C1=C(O)CC(C(=O)O)CC1=O` (centres unmarked) [PCA, prohexadione calcium salt], the Mean bunch weight was 452.9 g (20 ppm) and 390.0 g (100 ppm). Besides, the One berry weight is, setting by setting: (20 ppm) 7.3 g; (100 ppm) 6.4 g.
On the same counts, the results for `CCOC(=O)C1CC(=O)C(=C(O)C2CC2)C(=O)C1` (centres unmarked) [TR, trinexapac ethyl] are 487.1 g, 474.3 g, 7.9 g and 6.7 g.
